Experimental data taken from ChEMBL document CHEMBL4190187, “Discovery of pyrazolopyrimidine derivatives as novel inhibitors of ataxia telangiectasia and rad3 related protein (ATR)” (Bioorg Med Chem Lett, 2017).

Tests used:
[1] = molecular target: Discoidin domain-containing receptor 2 (Homo sapiens) (UniProt Q16832); experiment: Inhibition of recombinant human DDR2 (467 to end residues) at 1 uM using KKSRGDYMTMQIG as substrate after 40 mins in presence of [gamma-33P]ATP by scintillation counting method
[2] = test system: Hepatocyte growth factor receptor (Homo sapiens), P08581 [Y1248C]; experiment: Inhibition of recombinant human Met Y1248C mutant (974 to end residues) at 1 uM using KKKGQEEEYVFIE as substrate after 40 mins in presence of [gamma-33P]ATP by scintillation counting method
[3] = molecular target: PI3K p110 alpha/p85 alpha (Mus musculus) (UniProt P26450+P42337); experiment: Inhibition of recombinant full-length mouse p110a E542K mutant/p85a at 1 uM using phosphatidylinositol 4,5-bisphosphate as substrate after 40 mins in presence of [gamma-33P]ATP by scintillation counting method; type: protein-complex assay
[4] = molecular target: Tyrosine-protein kinase ABL1 (Mus musculus) (UniProt P00520); experiment: Inhibition of recombinant mouse Abl (27 to end residues) at 1 uM using EAIYAAPFAKKK as substrate after 40 mins in presence of [gamma-33P]ATP by scintillation counting method
[5] = test system: Tyrosine-protein kinase ABL1 (Homo sapiens), P00519 [T315I]; experiment: Inhibition of recombinant human Abl T315I mutant (27 to end residues) at 1 uM using EAIYAAPFAKKK as substrate after 40 mins in presence of [gamma-33P]ATP by scintillation counting method
[6] = molecular target: TRAF2 and NCK-interacting protein kinase (Homo sapiens) (UniProt Q9UKE5); experiment: Inhibition of recombinant human TNIK (1 to 367 residues) at 1 uM using RLGRDKYKTLRQIRQ as substrate after 40 mins in presence of [gamma-33P]ATP by scintillation counting method
[7] = molecular target: Serine/threonine-protein kinase PRP4 homolog (Homo sapiens) (UniProt Q13523); experiment: Inhibition of recombinant human PRP4 (663 to end residues) at 1 uM using casein as substrate after 120 mins in presence of [gamma-33P]ATP by scintillation counting method
Chain of Serine/threonine-protein kinase PRP4 homolog (Homo sapiens) (Q13523 whole entry): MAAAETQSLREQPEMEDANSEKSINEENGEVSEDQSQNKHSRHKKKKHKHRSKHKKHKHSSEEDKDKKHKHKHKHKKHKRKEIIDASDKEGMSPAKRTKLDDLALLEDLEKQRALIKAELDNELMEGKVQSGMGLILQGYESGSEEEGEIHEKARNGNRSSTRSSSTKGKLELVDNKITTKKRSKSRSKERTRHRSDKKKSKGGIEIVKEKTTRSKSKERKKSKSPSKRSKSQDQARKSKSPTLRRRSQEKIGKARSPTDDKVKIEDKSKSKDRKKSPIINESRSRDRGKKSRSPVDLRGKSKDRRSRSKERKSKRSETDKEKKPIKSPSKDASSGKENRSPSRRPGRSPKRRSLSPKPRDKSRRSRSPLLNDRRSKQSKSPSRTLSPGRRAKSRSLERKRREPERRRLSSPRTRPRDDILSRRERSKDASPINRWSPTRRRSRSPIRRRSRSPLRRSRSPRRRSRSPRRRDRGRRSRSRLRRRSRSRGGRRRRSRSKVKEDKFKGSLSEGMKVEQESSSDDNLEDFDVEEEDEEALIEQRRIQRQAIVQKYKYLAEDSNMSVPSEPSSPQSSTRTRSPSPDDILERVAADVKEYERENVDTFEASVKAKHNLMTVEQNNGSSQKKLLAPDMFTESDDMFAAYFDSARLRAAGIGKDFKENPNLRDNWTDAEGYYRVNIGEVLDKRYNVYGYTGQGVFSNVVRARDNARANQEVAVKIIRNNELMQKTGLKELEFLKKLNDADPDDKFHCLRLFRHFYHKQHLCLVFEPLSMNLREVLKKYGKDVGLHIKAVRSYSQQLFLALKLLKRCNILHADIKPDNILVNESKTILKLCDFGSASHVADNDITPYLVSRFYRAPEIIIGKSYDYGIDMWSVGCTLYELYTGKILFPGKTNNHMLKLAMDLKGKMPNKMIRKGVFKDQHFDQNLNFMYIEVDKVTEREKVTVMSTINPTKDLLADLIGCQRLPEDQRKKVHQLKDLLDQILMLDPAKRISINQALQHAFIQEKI

[8] = molecular target: Serine/threonine-protein kinase Nek6 (Homo sapiens) (UniProt Q9HC98); experiment: Inhibition of recombinant human NEK6 (2 to end residues) at 1 uM using FLAKSFGSPNRAYKK as substrate after 40 mins in presence of [gamma-33P]ATP by scintillation counting method
Chain of Serine/threonine-protein kinase Nek6 (Homo sapiens) (Q9HC98 whole entry): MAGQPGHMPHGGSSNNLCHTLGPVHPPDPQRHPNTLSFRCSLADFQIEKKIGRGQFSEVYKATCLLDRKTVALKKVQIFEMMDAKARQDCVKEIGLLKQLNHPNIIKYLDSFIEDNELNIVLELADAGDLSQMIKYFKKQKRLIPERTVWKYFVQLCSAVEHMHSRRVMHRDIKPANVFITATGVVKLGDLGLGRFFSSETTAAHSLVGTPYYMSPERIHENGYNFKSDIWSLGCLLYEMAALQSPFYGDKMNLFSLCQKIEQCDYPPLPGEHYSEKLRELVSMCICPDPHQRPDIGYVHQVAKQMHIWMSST

[9] = test system: Proto-oncogene tyrosine-protein kinase receptor Ret (Homo sapiens), P07949 [V804L]; experiment: Inhibition of recombinant human RET V804L mutant (658 to end residues) at 1 uM using KKKVSRSGLYRSPSMPENLNRPR as substrate after 40 mins in presence of [gamma-33P]ATP by scintillation counting method
Chain of Proto-oncogene tyrosine-protein kinase receptor Ret (Homo sapiens), P07949 [V804L] (P07949 whole entry V804L): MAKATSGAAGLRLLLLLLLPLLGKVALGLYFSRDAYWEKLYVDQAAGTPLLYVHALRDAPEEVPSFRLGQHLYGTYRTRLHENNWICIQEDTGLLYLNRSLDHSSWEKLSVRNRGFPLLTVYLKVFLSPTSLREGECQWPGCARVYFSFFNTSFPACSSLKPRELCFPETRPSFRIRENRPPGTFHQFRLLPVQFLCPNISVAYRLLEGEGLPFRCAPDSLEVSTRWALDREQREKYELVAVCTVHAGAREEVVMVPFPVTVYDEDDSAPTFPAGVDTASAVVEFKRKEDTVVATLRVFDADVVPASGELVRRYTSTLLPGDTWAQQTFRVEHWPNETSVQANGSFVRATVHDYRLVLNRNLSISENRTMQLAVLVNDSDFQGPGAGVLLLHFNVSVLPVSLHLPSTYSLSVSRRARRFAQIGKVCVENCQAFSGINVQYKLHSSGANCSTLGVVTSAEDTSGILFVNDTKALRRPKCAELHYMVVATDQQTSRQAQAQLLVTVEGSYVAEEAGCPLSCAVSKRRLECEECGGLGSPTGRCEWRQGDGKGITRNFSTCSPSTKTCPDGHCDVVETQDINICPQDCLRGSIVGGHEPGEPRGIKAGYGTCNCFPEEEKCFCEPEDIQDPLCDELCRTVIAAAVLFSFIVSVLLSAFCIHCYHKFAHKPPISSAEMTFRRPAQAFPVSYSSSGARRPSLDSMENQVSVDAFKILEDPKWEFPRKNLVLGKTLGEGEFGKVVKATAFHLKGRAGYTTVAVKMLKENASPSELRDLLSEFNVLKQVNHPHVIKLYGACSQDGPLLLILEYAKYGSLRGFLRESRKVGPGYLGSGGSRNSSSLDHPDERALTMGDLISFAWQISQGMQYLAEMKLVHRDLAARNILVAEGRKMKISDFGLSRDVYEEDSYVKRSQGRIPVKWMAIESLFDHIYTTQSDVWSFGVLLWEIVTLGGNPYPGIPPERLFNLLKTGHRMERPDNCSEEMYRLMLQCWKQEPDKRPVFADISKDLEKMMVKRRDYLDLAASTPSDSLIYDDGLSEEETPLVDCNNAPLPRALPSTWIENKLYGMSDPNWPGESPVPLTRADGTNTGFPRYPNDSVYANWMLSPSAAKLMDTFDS

[10] = test system: Proto-oncogene tyrosine-protein kinase receptor Ret (Homo sapiens), P07949 [V804M]; experiment: Inhibition of recombinant human RET V804M mutant (658 to end residues) at 1 uM using KKKVSRSGLYRSPSMPENLNRPR as substrate after 40 mins in presence of [gamma-33P]ATP by scintillation counting method
Chain of Proto-oncogene tyrosine-protein kinase receptor Ret (Homo sapiens), P07949 [V804M] (P07949 whole entry V804M): as the sequence (P07949 whole entry V804L) above, with L804M counted along it

[11] = molecular target: Serine/threonine-protein kinase D3 (Homo sapiens) (UniProt O94806); experiment: Inhibition of recombinant full-length human PKD3 at 1 uM using KKLRRTLSVA as substrate after 40 mins in presence of [gamma-33P]ATP by scintillation counting method
[12] = molecular target: Macrophage-stimulating protein receptor (Homo sapiens) (UniProt Q04912); experiment: Inhibition of recombinant human Ron (983 to end residues) at 1 uM using GGMEDIYFEFMGGKKK as substrate after 40 mins in presence of [gamma-33P]ATP by scintillation counting method
Chain of Macrophage-stimulating protein receptor (Homo sapiens) (Q04912 25-304 limits assumed): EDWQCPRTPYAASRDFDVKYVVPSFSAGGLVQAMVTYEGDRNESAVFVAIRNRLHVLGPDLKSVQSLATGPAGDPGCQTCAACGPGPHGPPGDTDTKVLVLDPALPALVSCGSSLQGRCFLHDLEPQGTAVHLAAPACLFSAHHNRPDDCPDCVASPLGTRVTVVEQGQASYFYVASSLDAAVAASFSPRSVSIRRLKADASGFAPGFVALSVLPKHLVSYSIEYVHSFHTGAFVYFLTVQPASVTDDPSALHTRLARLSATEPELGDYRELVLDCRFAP
Chain of Macrophage-stimulating protein receptor (Homo sapiens) (Q04912 310-1400 limits assumed): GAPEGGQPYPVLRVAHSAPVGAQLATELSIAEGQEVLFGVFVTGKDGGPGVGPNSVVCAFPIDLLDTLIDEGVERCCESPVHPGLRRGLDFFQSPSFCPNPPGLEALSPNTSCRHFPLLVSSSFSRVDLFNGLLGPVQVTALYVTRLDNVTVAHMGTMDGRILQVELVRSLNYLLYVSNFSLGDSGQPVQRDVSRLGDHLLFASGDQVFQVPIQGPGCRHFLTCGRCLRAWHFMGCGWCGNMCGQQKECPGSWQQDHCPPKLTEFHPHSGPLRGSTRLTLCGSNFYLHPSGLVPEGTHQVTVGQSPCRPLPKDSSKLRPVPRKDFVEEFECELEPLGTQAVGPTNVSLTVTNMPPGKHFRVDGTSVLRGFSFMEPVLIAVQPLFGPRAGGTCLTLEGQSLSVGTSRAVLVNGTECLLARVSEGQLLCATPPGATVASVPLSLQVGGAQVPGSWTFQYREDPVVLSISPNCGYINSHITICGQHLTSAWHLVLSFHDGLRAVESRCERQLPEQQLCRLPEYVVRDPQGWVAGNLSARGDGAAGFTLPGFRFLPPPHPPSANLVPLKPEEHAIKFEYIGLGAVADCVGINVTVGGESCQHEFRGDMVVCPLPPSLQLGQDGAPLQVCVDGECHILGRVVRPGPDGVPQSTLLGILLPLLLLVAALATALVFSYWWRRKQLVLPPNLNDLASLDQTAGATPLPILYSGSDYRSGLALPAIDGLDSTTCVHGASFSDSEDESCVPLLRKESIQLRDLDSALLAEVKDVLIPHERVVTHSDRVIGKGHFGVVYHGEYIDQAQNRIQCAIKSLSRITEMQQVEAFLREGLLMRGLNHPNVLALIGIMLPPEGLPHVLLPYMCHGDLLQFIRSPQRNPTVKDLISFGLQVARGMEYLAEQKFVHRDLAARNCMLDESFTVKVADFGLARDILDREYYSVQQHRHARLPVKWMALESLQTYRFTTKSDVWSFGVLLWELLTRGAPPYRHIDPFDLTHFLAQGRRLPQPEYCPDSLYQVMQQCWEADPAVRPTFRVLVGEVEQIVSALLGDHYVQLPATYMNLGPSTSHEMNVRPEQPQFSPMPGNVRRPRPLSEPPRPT

[13] = molecular target: Activin receptor type-2A (Homo sapiens) (UniProt P27037); experiment: Inhibition of recombinant human ACTR2 (162 to end residues) at 1 uM using casein as substrate after 120 mins in presence of [gamma-33P]ATP by scintillation counting method
[14] = molecular target: Serine/threonine-protein kinase NLK (Homo sapiens) (UniProt Q9UBE8); experiment: Inhibition of recombinant human NLK (121 to end residues) at 1 uM using myelin basic protein as substrate after 40 mins in presence of [gamma-33P]ATP by scintillation counting method
Chain of Serine/threonine-protein kinase NLK (Homo sapiens) (Q9UBE8 whole entry, the tested form may be a part, canonical isoform): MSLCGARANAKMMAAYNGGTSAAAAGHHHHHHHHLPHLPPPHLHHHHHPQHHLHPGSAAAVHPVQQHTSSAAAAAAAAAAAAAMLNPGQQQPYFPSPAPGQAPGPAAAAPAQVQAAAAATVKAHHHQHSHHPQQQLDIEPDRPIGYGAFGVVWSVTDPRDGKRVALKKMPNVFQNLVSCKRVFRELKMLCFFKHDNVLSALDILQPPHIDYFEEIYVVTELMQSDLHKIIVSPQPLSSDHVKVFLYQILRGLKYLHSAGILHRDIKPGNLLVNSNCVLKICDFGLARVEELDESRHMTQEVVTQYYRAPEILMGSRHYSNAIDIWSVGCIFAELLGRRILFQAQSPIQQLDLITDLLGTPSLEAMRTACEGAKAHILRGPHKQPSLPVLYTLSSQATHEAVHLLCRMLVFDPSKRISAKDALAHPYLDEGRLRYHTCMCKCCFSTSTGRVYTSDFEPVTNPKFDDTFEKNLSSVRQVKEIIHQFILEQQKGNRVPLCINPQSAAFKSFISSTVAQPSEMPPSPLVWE

[15] = molecular target: Casein kinase I isoform delta (Homo sapiens) (UniProt P48730); experiment: Inhibition of recombinant human CK1delta (1 to 294 residues) at 1 uM using KRRRALS(p)VASLPGL as substrate after 40 mins in presence of [gamma-33P]ATP by scintillation counting method
[16] = molecular target: Insulin receptor (Homo sapiens) (UniProt P06213); experiment: Inhibition of recombinant human IR (1005 to 1310 residues) at 1 uM using KKSRGDYMTMQIG as substrate after 40 mins in presence of [gamma-33P]ATP by scintillation counting method
[17] = molecular target: Protein kinase C gamma type (Homo sapiens) (UniProt P05129); experiment: Inhibition of recombinant full-length human PKCgamma at 1 uM using histone H1 as substrate after 40 mins in presence of [gamma-33P]ATP by scintillation counting method
[18] = molecular target: Tyrosine-protein kinase Blk (Homo sapiens) (UniProt P51451); experiment: Inhibition of recombinant full-length human Blk at 1 uM using poly(Glu,Tyr) 4:1 as substrate after 40 mins in presence of [gamma-33P]ATP by scintillation counting method
[19] = molecular target: Testis-specific serine/threonine-protein kinase 4 (Homo sapiens) (UniProt Q6SA08); experiment: Inhibition of recombinant full-length human TSSK4 at 1 uM using KKLNRTLSFAEPG as substrate after 40 mins in presence of [gamma-33P]ATP by scintillation counting method
[20] = molecular target: Tyrosine-protein kinase Lyn (Mus musculus) (UniProt P25911); experiment: Inhibition of recombinant full-length mouse Lyn at 1 uM using poly(Glu,Tyr) 4:1 as substrate after 40 mins in presence of [gamma-33P]ATP by scintillation counting method
Chain of Tyrosine-protein kinase Lyn (Mus musculus) (P25911 whole entry): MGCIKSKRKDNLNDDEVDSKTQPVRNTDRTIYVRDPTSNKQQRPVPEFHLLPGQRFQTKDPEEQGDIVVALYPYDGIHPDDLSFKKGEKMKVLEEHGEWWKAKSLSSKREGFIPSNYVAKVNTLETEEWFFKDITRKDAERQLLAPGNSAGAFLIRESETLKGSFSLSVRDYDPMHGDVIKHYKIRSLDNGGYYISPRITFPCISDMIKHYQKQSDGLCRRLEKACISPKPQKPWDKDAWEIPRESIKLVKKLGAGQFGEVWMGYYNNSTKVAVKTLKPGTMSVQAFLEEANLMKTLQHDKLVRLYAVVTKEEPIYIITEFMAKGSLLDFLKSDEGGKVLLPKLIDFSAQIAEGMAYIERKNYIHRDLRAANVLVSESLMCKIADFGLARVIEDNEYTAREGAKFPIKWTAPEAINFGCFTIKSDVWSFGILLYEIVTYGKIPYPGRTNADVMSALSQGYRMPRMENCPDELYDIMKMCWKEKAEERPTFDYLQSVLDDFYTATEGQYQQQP

[21] = molecular target: High affinity nerve growth factor receptor (Homo sapiens) (UniProt P04629); experiment: Inhibition of recombinant human TrkA (440 to end residues) at 1 uM using KKKSPGEYVNIEFG as substrate after 40 mins in presence of [gamma-33P]ATP by scintillation counting method
[22] = molecular target: Mitogen-activated protein kinase 8 (Homo sapiens) (UniProt P45983); experiment: Inhibition of recombinant full-length human JNK1alpha1 at 1 uM using ATF2 as substrate after 40 mins in presence of [gamma-33P]ATP by scintillation counting method
[23] = test system: Hepatocyte growth factor receptor (Homo sapiens), P08581 [D1246H]; experiment: Inhibition of recombinant human Met D1246H mutant (974 to end residues) at 1 uM using KKKGQEEEYVFIE as substrate after 40 mins in presence of [gamma-33P]ATP by scintillation counting method

SMILES: CS(=O)(=O)c1ccc(-n2nc(-c3cnc4[nH]ccc4c3)c3c(N)ncnc32)cc1
- inhibition [1]: 4%
- inhibition [2]: 3%
- inhibition [3]: 11%
- inhibition [4]: 85%
- inhibition [5]: 13%
- inhibition [6]: -9%
- inhibition [7]: 4%
- inhibition [8]: -4%
- inhibition [9]: 20%
- inhibition [10]: 14%
- inhibition [11]: 10%
- inhibition [12]: 2%
- inhibition [13]: 6%
- inhibition [14]: 18%
- inhibition [15]: 66%
- inhibition [16]: -7%
- inhibition [17]: 3%
- inhibition [18]: 40%
- inhibition [19]: -10%
- inhibition [20]: 45%
- inhibition [21]: 2%
- inhibition [22]: 1%
- inhibition [23]: 1%
